Test results: publication PMC6149825, “PTP1B Inhibitors from the Entomogenous Fungi Isaria fumosorosea” (Molecules : A Journal of Synthetic Chemistry and Natural …, 2017)
Like-named read-outs stand apart in the source and are kept apart here.

Target: T1, PTP1B (Homo sapiens, UniProt P18031)
T1 sequence (P18031 1-435): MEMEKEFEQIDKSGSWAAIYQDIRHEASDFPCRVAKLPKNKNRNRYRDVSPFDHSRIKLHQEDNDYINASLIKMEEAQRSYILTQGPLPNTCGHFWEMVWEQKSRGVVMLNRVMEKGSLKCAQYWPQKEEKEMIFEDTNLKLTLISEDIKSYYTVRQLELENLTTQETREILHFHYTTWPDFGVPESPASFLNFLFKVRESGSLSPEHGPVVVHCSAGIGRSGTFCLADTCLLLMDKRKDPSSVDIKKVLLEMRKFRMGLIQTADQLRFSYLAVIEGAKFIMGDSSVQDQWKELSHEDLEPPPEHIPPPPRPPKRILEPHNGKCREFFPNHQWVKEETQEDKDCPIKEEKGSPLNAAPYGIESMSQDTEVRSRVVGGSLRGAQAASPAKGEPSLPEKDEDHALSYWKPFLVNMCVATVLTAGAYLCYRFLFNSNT
Assay: PTP1B inhibition assay (hydrolysis of p-nitrophenyl phosphate, 96-well plate)
Procedure: PTP1B activity was measured as the rate of hydrolysis of p-nitrophenyl phosphate (pNPP) in a 96-well microtiter plate format [13]. […] Each experiment was performed in triplicate, and IC50 data were derived from three independent experiments.

With “2-carboxymethyl-4-(3′-hydroxybutyl)furan [Compound 5]” as the compound, how does the IC50 (read-out: PTP1B inhibitory activity IC50, in vitro, pNPP substrate, triplicate, three independent experiments) read?
Its IC50 is over 1000 µM.

`CCC(C)CC(C)C=C(C)C=CC=CC=C(C)C(O)=C1C(=O)NC(Cc2ccc(O)cc2)C1=O` (centres unmarked) [Compound 1, fumosorinone A] was tested. Which IC50 did it give?
The IC50 was 3.24 ± 0.37 µM.

For `C[C@@H]1CCC(=O)C[C@H](O)[C@@H](O)CC(=O)O1` [Compound 2, Cepharosporolides C], which IC50 is on record?
Its IC50 is over 1000 µM.

How did the IC50 turn out when `C[C@@H]1CC[C@]2(C[C@@H]3OC(=O)C[C@@H]3O2)O1` [Compound 3, Cepharosporolides E] was run?
The IC50 was over 1000 µM.

`CC1CCC2(CC3OC(=O)CC3O2)O1` (centres unmarked) [Compound 4, Cepharosporolides F] was tested. Which IC50 did it give?
Its IC50 is over 1000 µM.
